Data reported in article PMC11794677, “Self‐Assembly of a Conjugate of Lipoic Acid With a Collagen‐Stimulating Pentapeptide Showing Cytocompatibility and Wound Healing Properties, and Chemical and Photolytic Disassembly” (Journal of Peptide Science, 2025).

How the values were obtained:
Format in all cases: physicochemical
[1] = Chemical reduction with TCEP, effect on self-assembled structures; conditions: 3 wt% with 2.6 wt% TCEP, SAXS and SANS; cryo-TEM 1 wt% + 0.37 wt% TCEP
Source text: The ring‐opening of the lipoyl moiety can be achieved under reductive conditions. We examined the effect of chemical reduction on the self‐assembled structures of lipoyl‐KTTKS using TCEP [tris(2‐carboxyethyl)phosphine] as reductant. […] The SAXS data in Figure 3a show a considerable reduction in scattering intensity after addition of TCEP and the SANS profile in Figure 3b is barely above background after addition of TCEP. The SAXS data can be described using a form factor for monomer scattering with a power‐law intensity function at low q to account for a small fraction of irregular aggregates. The disruption of the fibrils upon TCEP addition was also confirmed by cryo‐TEM (images shown in Figure S1) because no aggregate structures were observed after addition of TCEP. Circular dichroism (CD) spectra shown in Figure 4 are characterized by a negative minimum in the CD spectrum at 196 nm along with the absence of defined features at higher wavelength, characteristic of a primarily disordered conformation. […] This is consistent with the observation that lipoyl‐KTTKS forms fibril‐like structures above a CAC detected by ThT binding to β‐sheet structure and as observed by cryo‐TEM, SAXS and SANS. […]

[2] = UV exposure / photodegradation, UV-vis absorbance at 333 nm; conditions: UV lamp 365 nm for 1 h, 0.1 wt% solution, read 24 h after irradiation
Method: To investigate the effect of UV exposure on lipoyl‐KTTKS the peptide powder was irradiated using a 4W UVGL‐25 lamp (Analytik Jena, Germany) at a wavelength of 365 nm for 1 h. The absorbance was tracked at 333 nm before, just after exposure and 24 h after exposure using a nanodrop spectrometer (Thermo‐Fisher Scientific). The full spectra were also collected using a Varian Cary Bio 300 UV‐vis (Cary).
Lipoic acid is susceptible to photolysis upon exposure to UV light. Photodegradation of lipoyl‐KTTKS was studied via UV‐vis, FTIR and CD spectroscopy and degradation products were analysed by electrospray ionisation‐mass spectroscopy (ESI‐MS). Photolysis was induced by exposure to UV for 1 h using a UV lamp with 365‐nm radiation. Lipoic acid presents a characteristic weak band at 333 nm that is related to the hindered dithiolane ring, that can be broken by UV irradiation. The absorbance of lipoyl‐KTTKS (0.1 wt% solution) before irradiation, just after and 24 h after irradiation to evaluate the recovery of the dithiolane ring is shown in Figure 5. […] The UV exposure disrupts the dithiolane ring, as reflected also in the FTIR spectrum (Figure S2), with the suppression of bands ν(S‐S) at 519 and 438 cm^−1 and ν(C‐S) at 721 cm^−1 [48, 49].

[3] = Cryo-TEM of aggregation in solution; conditions: 3 wt% aqueous solution, above the CAC
Source text: Cryo‐TEM was used to probe potential aggregation in solution above the CAC (3 wt% aqueous solution). […] The presence of such structures was also confirmed by SAXS and SANS data (Figure 3), which reveal form factor features that can be fitted using a core‐shell cylinder form factor, consistent with extended fibril structures. The cylinder radius is 25 Å, which is approximately equal to the estimated length of the molecule considering the lipid chain plus a pentapeptide in a β‐sheet conformation. […] For the SAXS data, it was necessary to include a contribution in the fits from unaggregated peptide, which gives rise to scattering at high q, described using a generalized Gaussian coil form factor (generalized refers to allowing the Flory exponent for the coil to vary from the value ν = 0.5 for an unperturbed coil). SANS data for 3 wt% solutions of lipoyl‐KTTKS in D2O can be fitted to a core‐shell cylinder form factor, consistent with SAXS, with fit parameters listed in Table S1. It was not necessary to allow for unaggregated monomer in fitting the SANS data, which may be because of the higher background and/or altered scattering contrast compared with SAXS. The cylinder radius and shell thickness obtained from the fits to the SANS data are in excellent agreement with the parameters obtained from the SAXS fit.
FIGURE 2 Cryo‐TEM image from a 3‐wt% aqueous solution of lipoyl‐KTTKS.

lipoyl‐KTTKS [peptide amphiphile comprising a conjugate of lipoic acid to pentapeptide KTTKS]
Effect of addition of TCEP on self-assembled structures [1]: disrupts the fibril structures | Recovery of absorbance at 333 nm (dithiolane ring) after UV exposure [2]: incomplete recovery | Aggregate structure seen by cryo-TEM [3]: short curly fibrils
